Data reported in publication PMC8213057, “Targeting ALK2: An Open Science Approach to Developing Therapeutics for the Treatment of Diffuse Intrinsic Pontine Glioma” (Journal of Medicinal Chemistry, 2020).

Tests used:
[1] = molecular target: T1, JAK3 (Homo sapiens, UniProt P52333); settings: 1 μM; Run 1, Run 2
T1 sequence (P52333 1-1124): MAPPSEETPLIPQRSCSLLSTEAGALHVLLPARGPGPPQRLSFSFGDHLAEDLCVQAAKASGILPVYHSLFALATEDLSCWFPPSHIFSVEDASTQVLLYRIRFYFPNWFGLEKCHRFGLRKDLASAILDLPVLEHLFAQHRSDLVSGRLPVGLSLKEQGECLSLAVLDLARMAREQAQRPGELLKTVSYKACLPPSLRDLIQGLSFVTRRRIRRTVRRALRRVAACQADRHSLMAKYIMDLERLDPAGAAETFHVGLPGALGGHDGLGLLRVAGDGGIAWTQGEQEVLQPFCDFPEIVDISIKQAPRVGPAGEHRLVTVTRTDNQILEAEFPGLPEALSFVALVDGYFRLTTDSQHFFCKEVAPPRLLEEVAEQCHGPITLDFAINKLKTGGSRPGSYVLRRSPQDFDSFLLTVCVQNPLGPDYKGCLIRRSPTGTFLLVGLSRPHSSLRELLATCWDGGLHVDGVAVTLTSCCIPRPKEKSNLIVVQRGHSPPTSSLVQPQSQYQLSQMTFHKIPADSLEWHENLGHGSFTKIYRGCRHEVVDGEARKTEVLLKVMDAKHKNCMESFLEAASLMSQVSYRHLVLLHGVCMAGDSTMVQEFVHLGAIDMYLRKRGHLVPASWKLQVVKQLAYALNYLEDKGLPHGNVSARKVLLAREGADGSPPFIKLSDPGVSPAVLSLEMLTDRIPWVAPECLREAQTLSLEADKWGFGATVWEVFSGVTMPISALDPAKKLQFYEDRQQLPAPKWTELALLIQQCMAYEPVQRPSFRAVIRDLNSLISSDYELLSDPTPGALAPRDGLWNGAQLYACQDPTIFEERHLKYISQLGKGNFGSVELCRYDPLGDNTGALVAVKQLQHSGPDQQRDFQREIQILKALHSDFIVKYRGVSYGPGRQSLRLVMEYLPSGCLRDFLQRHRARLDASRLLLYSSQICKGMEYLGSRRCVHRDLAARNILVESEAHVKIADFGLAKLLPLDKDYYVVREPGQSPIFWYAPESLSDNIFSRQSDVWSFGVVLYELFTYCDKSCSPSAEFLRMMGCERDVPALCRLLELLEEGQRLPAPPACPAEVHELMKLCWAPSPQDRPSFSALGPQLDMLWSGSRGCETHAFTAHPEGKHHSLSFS

[2] = molecular target: T2, GRK2 (Homo sapiens, UniProt P25098); test: biochemical; settings: read-out: % enzyme activity, 1 μM; Run 1, Run 2
T2 sequence (P25098 1-689): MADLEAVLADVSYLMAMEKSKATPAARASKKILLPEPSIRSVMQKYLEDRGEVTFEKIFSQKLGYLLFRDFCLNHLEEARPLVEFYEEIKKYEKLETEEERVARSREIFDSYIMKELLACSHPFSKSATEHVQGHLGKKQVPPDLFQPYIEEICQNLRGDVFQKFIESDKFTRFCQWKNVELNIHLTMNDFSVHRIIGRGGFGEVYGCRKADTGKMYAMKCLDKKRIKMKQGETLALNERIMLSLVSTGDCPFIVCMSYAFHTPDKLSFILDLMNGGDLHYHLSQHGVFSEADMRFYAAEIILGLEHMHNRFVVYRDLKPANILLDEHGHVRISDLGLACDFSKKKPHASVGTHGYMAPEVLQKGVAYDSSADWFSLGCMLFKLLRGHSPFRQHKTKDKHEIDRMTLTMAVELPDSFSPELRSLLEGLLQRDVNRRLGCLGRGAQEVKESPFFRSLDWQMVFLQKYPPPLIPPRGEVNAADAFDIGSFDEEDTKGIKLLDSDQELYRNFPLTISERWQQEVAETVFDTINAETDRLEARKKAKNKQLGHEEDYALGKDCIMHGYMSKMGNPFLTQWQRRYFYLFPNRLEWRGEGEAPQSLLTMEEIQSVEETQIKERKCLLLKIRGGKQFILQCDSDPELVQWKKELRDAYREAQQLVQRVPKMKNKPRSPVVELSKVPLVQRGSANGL

[3] = molecular target: DYRK1B (Homo sapiens, UniProt Q9Y463); settings: 1 μM; Run 1, Run 2
[4] = molecular target: BTK (Homo sapiens, UniProt Q06187); test: biochemical; settings: read-out: % enzyme activity, 1 μM; Run 1, Run 2
[5] = molecular target: CYP2B6
[6] = molecular target: T3, MEK3 (Homo sapiens, UniProt P46734); settings: 1 μM; Run 1, Run 2
T3 sequence (P46734 1-347): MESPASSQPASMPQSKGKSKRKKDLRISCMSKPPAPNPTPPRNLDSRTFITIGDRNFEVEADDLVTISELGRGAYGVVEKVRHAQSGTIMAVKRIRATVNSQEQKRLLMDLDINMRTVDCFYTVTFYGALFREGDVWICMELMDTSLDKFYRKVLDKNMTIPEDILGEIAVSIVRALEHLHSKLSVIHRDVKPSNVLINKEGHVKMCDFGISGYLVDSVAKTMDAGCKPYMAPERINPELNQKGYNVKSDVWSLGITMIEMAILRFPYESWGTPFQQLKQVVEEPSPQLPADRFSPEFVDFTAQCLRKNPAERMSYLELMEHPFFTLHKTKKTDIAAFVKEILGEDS

[7] = molecular target: CDK4/cyclin D3 (Homo sapiens, UniProt P11802); test: biochemical; settings: read-out: % enzyme activity, 1 μM; Run 1, Run 2
CDK4/cyclin D3, sequence (P11802 whole entry): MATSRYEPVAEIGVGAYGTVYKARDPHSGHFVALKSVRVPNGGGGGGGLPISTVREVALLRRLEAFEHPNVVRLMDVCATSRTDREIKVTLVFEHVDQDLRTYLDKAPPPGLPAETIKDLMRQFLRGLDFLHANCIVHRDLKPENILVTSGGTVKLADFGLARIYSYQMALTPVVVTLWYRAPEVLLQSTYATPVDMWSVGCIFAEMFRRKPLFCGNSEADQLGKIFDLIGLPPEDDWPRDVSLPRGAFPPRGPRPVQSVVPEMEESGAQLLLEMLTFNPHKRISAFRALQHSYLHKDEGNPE
CDK4/cyclin D3, sequence (P30281 whole entry partner): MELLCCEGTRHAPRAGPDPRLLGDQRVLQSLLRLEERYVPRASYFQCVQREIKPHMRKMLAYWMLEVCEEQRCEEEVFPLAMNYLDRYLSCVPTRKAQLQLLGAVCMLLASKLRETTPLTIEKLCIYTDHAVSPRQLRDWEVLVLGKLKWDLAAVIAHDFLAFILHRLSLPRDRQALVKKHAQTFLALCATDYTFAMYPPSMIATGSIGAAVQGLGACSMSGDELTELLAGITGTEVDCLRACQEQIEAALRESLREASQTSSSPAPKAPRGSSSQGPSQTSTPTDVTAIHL

BTK, sequence (Q06187 whole entry): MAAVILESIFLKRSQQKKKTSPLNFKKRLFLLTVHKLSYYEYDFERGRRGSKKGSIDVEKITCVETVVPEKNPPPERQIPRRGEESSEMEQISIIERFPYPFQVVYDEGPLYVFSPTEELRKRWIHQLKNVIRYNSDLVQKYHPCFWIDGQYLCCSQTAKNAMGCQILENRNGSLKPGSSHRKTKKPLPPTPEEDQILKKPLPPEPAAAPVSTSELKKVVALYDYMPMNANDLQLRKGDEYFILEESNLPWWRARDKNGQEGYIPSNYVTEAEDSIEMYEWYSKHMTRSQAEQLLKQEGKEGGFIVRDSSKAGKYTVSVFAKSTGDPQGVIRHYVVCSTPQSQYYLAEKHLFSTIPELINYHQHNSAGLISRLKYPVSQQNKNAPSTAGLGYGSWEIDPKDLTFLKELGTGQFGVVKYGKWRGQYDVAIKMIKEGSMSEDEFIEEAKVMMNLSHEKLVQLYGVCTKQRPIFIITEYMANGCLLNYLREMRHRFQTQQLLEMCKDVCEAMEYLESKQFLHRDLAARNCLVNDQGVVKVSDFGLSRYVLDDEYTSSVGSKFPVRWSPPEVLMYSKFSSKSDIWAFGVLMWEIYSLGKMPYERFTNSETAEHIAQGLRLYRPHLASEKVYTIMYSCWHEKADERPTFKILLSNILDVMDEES
DYRK1B, sequence (Q9Y463 whole entry): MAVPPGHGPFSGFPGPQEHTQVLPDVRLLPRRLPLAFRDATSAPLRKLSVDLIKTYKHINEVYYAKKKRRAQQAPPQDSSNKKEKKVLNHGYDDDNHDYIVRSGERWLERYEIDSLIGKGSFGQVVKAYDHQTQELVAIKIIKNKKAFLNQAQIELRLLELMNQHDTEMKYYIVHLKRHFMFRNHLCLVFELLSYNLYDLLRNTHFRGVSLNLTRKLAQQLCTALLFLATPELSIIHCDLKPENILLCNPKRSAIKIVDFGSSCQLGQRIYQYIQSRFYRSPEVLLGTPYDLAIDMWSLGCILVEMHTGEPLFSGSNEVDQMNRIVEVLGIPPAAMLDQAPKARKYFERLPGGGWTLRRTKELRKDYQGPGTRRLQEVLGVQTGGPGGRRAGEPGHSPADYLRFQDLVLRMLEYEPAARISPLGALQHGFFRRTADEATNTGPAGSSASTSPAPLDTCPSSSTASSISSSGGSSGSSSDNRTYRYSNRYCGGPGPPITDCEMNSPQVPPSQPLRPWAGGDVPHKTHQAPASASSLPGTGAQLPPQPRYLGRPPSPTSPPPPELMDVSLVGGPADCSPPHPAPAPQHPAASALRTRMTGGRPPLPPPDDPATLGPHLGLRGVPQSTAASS

SMILES	% enzyme activity [1] [%]	remaining activity at 1 µM [2] [%]	% enzyme activity [3] [%]	remaining activity at 1 µM [4] [%]	CYP inhibition [5] [µM]	% enzyme activity [6] [%]	remaining activity at 1 µM [7] [%]
COc1cc(-c2cncc(-c3ccc(N4CCN(C)CC4)cc3)c2C)cc(F)c1C(N)=O [Compound 26a, 2-Fluoro-6-methoxy-4-(4-methyl-5-(4-(4-methylpiperazin-1-yl)phenyl)pyridin-3-yl)benzamide]	102.92	105	39.80	95.3	> 50	100.94	101
COc1cc(-c2cncc(-c3ccc(N4C[C@@H](C)N(C)[C@@H](C)C4)cc3)c2C)cc(F)c1C(N)=O [Compound 26c, 2-Fluoro-6-methoxy-4-(4-methyl-5-(4-((3R,5S)-3,4,5-trimethylpiperazin-1-yl)phenyl)pyridin-3-yl)benzamide]	99.31	101	58.52	96.5	> 50	101.33	96
